Assay results from patent publication US20090191173A1, “Induction Of Neurogenesis And Stem Cell Therapy In Combination With Copolymer 1” (priority 2004, published 2009).
Read-outs that look alike come from different tables or passages of the source.

Experiments:
[1] = system: spinal cord injury (SCI) in C57B1/6J mice; type: in vivo, mouse
[2] = system: neural progenitor cells (NPCs); assay: Neurogenesis from NPCs co-cultured with microglia pre-activated by aggregated Aβ and cytokines; type: cell-based, mouse; details: 10 days; Aβ 5 μM 48 h, cytokines 10 ng/ml
Experimental: (xx) Reagents. Recombinant mouse IFN-γ and IL-4 (both containing endotoxin at a concentration below 0.1 ng/μg cytokine) were obtained from R&D Systems (Minneapolis, Minn.). β-amyloid peptides [amyloid protein fragment 1-40 and 1-42 (Aβ1-40/1-42)] were purchased from Sigma-Aldrich, St. Louis, Mo. The Aβ peptides were dissolved in endotoxin-free water, and Aβ aggregates were formed by incubation of Aβ, as described (Ishii et al., 2000). (xxv) Neural progenitor cell culture. Coronal sections (2 mm thick) of tissue containing the subventricular zone of the lateral ventricle were obtained from the brains of adult C57B1/6J mice. […] After centrifugation at 110×g for 15 min at room temperature, the tissue was mechanically dissociated by pipette trituration. Cells obtained from single-cell suspensions were plated (3500 cells/cm^2) in 75-cm^2 Falcon tissue-culture flasks (BD Biosciences, San Diego, Calif.), in NPC-culturing medium [Dulbecco's modified Eagles's medium (DMEM)/F12 medium (Gibco/Invitrogen, Carlsbad, Calif.) containing 2 mM L-glutamine, 0.6% glucose, 9.6 μg/ml putrescine, 6.3 ng/ml progesterone, 5.2 ng/ml sodium selenite, 0.02 mg/ml insulin, 0.1 mg/ml transferrin, 2 μg/ml heparin (all from Sigma-Aldrich, Rehovot, Israel), fibroblast growth factor-2 (human recombinant, 20 ng/ml), and epidermal growth factor (human recombinant, 20 ng/ml; both from Peprotech, Rocky Hill, N.J.)]. Spheres were passaged every 4-6 days and replated as single cells. Green fluorescent protein (GFP)-expressing NPCs were obtained as previously described (Pluchino et al., 2003). (xxvi) Primary microglial culture. Brains from neonatal (P0-P1) C57B1/6J mice were stripped of their meninges and minced with scissors under a dissecting microscope (Zeiss, Stemi DV4, Germany) in Leibovitz-15 medium (Biological Industries, Kibbutz Beit Ha-Emek, Israel). […] The cell suspension was washed in culture medium for glial cells [DMEM supplemented with 10% fetal calf serum (FCS; Sigma-Aldrich, Rehovot), L-glutamine (1 mM), sodium pyruvate (1 mM), penicillin (100 U/ml), and streptomycin ([…])] and cultured at 37° C./5% CO2 in 75-cm^2 Falcon tissue-culture flasks (BD Biosciences) coated with poly-D-lysine (PDL) (10 mg/ml; Sigma-Aldrich, Rehovot) in borate buffer (2.37 g borax and 1.55 g boric acid dissolved in 500 ml sterile water, pH 8.4) for 1 h, then rinsed thoroughly with sterile, glass-distilled water. Half of the medium was changed after 6 h in culture and every 2nd day thereafter, starting on day 2, for a total culture time of 10-14 days. […]

[3] = system: neural progenitor cells (NPCs); assay: Oligodendrocyte differentiation (NG2, RIP, GalC) of NPCs co-cultured with activated microglia; type: cell-based, mouse; details: agent added to NPCs co-cultured with MG(IFN-γ)
Experimental: (iii) Neural progenitor cell (NPC) culture. Coronal sections (2 mm thick) of tissue containing the subventricular zone of the lateral ventricle were obtained from the brains of adult C57B16/J mice. The tissue was minced and then incubated for digestion at 37° C., 5% CO2 for 45 min in Earle's balanced salt solution containing 0.94 mg/ml papain (Worthington, Lakewood, N.J.) and 0.18 mg/ml of L-cysteine and EDTA. After centrifugation at 110×g for 15 min at room temperature, the tissue was mechanically dissociated by pipette trituration. Cells obtained from single-cell suspensions were plated (3500 cells/cm^2) in 75-cm^2 Falcon tissue-culture flasks (BD Biosciences, Franklin Lakes, N.J.), in NPC-culturing medium [Dulbecco's modified Eagles's medium (DMEM)/F12 medium (Gibco/Invitrogen, Carlsbad, Calif.) containing 2 mM L-glutamine, 0.6% glucose, 9.6 μg/ml putrescine, 6.3 ng/ml progesterone, 5.2 ng/ml sodium selenite, 0.02 mg/ml insulin, 0.1 mg/ml transferrin, 2 μg/ml heparin (all from Sigma-Aldrich, Rehovot, Israel), fibroblast growth factor-2 (human recombinant, 20 ng/ml), and epidermal growth factor (human recombinant, 20 ng/ml; both from Peprotech, Rocky Hill, N.J.)]. Spheres were passaged every 4-6 days and replated as single cells. Green fluorescent protein (GFP)-expressing neural progenitor cells (NPCs) were obtained as previously described (Pluchino et al., 2003). […]

MEVGWYRSPFDRVVHLYRNGK [45D peptide, altered MOG 35-55 peptide, serine to aspartic acid substitution]
Basso motor score (BMS), mean±SEM ([1]; immunization in CFA 2.5% M. tuberculosis, without aNPC transplantation (FIG. 7C)): 2.57±0.24 | Basso motor score (BMS), mean±SEM ([1]; vaccination in CFA 2.5% M. tuberculosis 1 week before SCI, aNPCs i.c.v. 1 week after SCI (FIG. 7C)): 4.11±0.27

Aβ(1-42): aggregated amyloid protein fragment 1-42
neurogenesis (GFP+/βIIIT+ cells) from NPCs co-cultured with treated microglia [2]: negative effect was not exhibited

Aβ(1-40): aggregated amyloid protein fragment 1-40
neurogenesis (GFP+/βIIIT+ cells) from NPCs co-cultured with treated microglia [2]: blocked neurogenesis and decreased the number of NPCs

MEVGWYRSPFSRVVHLYRNGK [MOG/CFA/PBS, pMOG 35-55 emulsified in CFA, PBS i.c.v. instead of cells]
Basso motor score (BMS), mean±SEM ([1]; immunization immediately after SCI, CFA containing 0.5% Mycobacterium tuberculosis, i.c.v. injection 1 week later (FIG. 7A)): 2.71±0.5

MEVGWYRSPFSRVVHLYRNGK [MOG/CFA, MOG peptide 35-55 emulsified in CFA containing 2.5% Mycobacterium tuberculosis]
Basso motor score (BMS) ([1]; MOG 35-55 in CFA 2.5% M. tuberculosis one week prior to SCI, no aNPCs (FIGS. 7G, 7H)): 0.35±0.2

B1: rTNF-α: recombinant mouse TNF-α (protein)
chain: LRSSSQNSSDKPVAHVVANHQVEEQLEWLSQRANALLANGMDLKDNQLVVPADGLYLVYSQVLFKGQGCPDYVLLTHTVSRFAISYQEKVNLLSAVKSPCPKDTPEGAELKPWYEPIYLGGVFQLEKGDQLSAEVNLPKYLDFAESGQVYFGVIAL
oligodendrogenesis induced by MG(IFN-γ) [3]: negative effect

B2: OVA/CFA/PBS: nonself protein ovalbumin emulsified in CFA, PBS i.c.v. (protein, UniProt P01012 2-386, looked up)
Ovalbumin: GSIGAASMEFCFDVFKELKVHHANENIFYCPIAIMSALAMVYLGAKDSTRTQINKVVRFDKLPGFGDSIEAQCGTSVNVHSSLRDILNQITKPNDVYSFSLASRLYAEERYPILPEYLQCVKELYRGGLEPINFQTAADQARELINSWVESQTNGIIRNVLQPSSVDSQTAMVLVNAIVFKGLWEKAFKDEDTQAMPFRVTEQESKPVQMMYQIGLFRVASMASEKMKILELPFASGTMSMLVLLPDEVSGLEQLESIINFEKLTEWTSSNVMEERKIKVYLPRMKMEEKYNLTSVLMAMGITDVFSSSANLSGISSAESLKISQAVHAAHAEINEAGREVVGSAEAGVDAASVSEEFRADHPFLFCIKHIATNAVLFFGRCVSP
modifications: emulsified in CFA
Basso motor score (BMS) ([1]; OVA in CFA 2.5% M. tuberculosis, i.c.v. injection 1 week later (FIG. 7F)): 2.2±0.68
